Measurements taken from EP4671239A1, “ARYL SUBSTITUENT-CONTAINING DEGRADATION AGENT FOR CDK12/13, PREPARATION METHOD THEREFOR, AND PHARMACEUTICAL COMPOSITION AND USE THEREOF” (Shanghai Institute of Organic Chemistry, Chinese Academy of …, priority 2023, dated 2024).
pIC50: −log10 of the molar value. Like-named read-outs stand apart in the source and are kept apart here.

How the values were obtained:
CDK12 and CDK13 proteins [1] = experiment: Degradation activity on CDK12/13 in 22RV1 cells (Western Blot); format: cell-based; details: for induction of degradation of CDK12 and CDK13 proteins: cell line and concentration not given there; for degradation of CDK12 and CDK13 proteins / degradation of CDK12 and CDK13 protein levels in cells / dose dependence of degradation of CDK12 and CDK13 proteins: 22RV1 cells; for degradation of CDK12 and CDK13 proteins: 100 nM, 6 h (FIG. 5); for degradation of CDK12 and CDK13 protein levels in cells: 500 nM, 6 hours, WB (FIG. 4); for dose dependence of degradation of CDK12 and CDK13 proteins: different concentrations, 6 h (FIG. 4B, FIG. 5)
Description: Experimental methods: The cell line, 22RV1 cell line was purchased from the American Type Culture Collection (ATCC). Conventional Western Blot was used for detection as follows: 22RV1 cells were seeded in a certain number in a 12-well plate, and cultured overnight in an incubator in an adherent manner. […] The cells were lysed with a lysis buffer, and samples were collected. Then, an appropriate amount of the samples was taken for SDS-PAGE electrophoresis. After electrophoresis, the proteins were transferred to nitrocellulose membranes using a semi-dry electro-transfer system. The nitrocellulose membrane was placed in a blocking solution (5% skim milk powder diluted in TBS containing 0.1% Tween 20) and blocked at room temperature for 2 h. The membranes were then placed in a primary antibody solution (1: 1000 diluted in TBS containing 0.1% Tween 20), respectively, and incubated at 4°C overnight. The cells were washed three times with TBS containing 0.1% Tween 20, each time for 15 min. The membrane was placed in a secondary antibody solution (horseradish peroxidase-labeled goat anti-rabbit IgG, diluted at 1:1000 in TBS containing 0.1% Tween 20) and reacted at room temperature for 1 h. After washing the membrane three times as above, the membrane was developed with ECL plus reagent and photographed using Amersham Imager 600 system.

[2] = test system: prostate cancer VCap cells; experiment: Proliferation-inhibiting activity on VCap cells (CellTiter-Glo); format: cell-based; details: Homo sapiens; VCap cell line, CellTiter-Glo (FIG. 6)
Description: The cell proliferation-inhibiting activity of the compounds was determined using the CellTiter-Glo Luminescent Cell Viability Assay (Promega, Madison, WI). The cells were seeded in a 96-well plate in their respective culture media and incubated at 37°C in a 5% CO2 incubator. After overnight incubation, serial dilutions of the compounds were prepared and added to the 96-well plate. A volume of CellTiter-Glo reagent equal to the volume of the cell culture medium present in each well was added (e.g., 100 microliters of the reagent was added to 100 microliters of the culture medium for the cells in the 96-well plate). The contents were mixed on an orbital shaker for 2 min to induce cell lysis. The 96-well plate was incubated at room temperature for 10 minutes to stabilize a luminescent signal. Luminescence was recorded: the luminescence signal of each well was acquired using an Infinite M1000 Pro plate reader (Tecan, Zürich, Switzerland), and the data were analyzed using GraphPad Prism software (GraphPad Software Inc, La Jolla, CA).

[3] = Pharmacokinetics and bioavailability test in rats (Example 60); format: in vivo; details: SD rats; for F: bioavailability calculated from AUC; for oral pharmacokinetic properties: summary in words of Tables 2-6; for Cmax / Tmax / clearance / half-life: rat
Description: (§1) Pharmacokinetics and bioavailability tests in rats. SD rats were given a single oral (10 mg/kg), intravenous (2.5 mg/kg) and intraperitoneal (10 mg/kg) dose, followed by animal blood sample collection at appropriate time points. Heparin was added for anticoagulation, and the samples were centrifuged at 8000 rpm for 6 min. The supernatant was collected and stored at -20°C for HPLC-MS analysis. The blood samples underwent protein precipitation with acetonitrile at 12 000 rpm * 10 min, and the supernatant was used for HPCL-MS analysis. The data underwent parameter fitting with DAS2.0, to obtain compartmental model and non-compartmental model parameters, respectively. The oral bioavailability of the compounds was calculated based on the area under the plasma concentration-time curve (AUC) data. […] Table 2. Pharmacokinetic experimental results of compounds YJZ9069 and YJZ1102

CDK12 and CDK13 proteins [4] = experiment: Degradation activity on CDK12/13 in MDA-MB-231 cells (Western Blot); format: cell-based; details: 0.1µM or 0.3µM, 15 h, WB (FIG. 1)
Description: Experimental methods: The cell line MDA-MB-231 was purchased from the American Type Culture Collection (ATCC). Conventional Western Blot was used for detection, as follows: MDA-MB-231 cells were seeded at a density of 2 x 10^5/mL in a 12-well plate, with 1 mL per well, and cultured overnight in an incubator in an adherent manner. Then, a certain concentration of compounds was added to act for 15 h. The cells were lysed with a lysis buffer, and protein samples were collected. An appropriate amount of the sample was taken for SDS-PAGE electrophoresis. After electrophoresis, the protein was transferred to a polyvinylidene fluoride (PVDF) membrane using a wet electro-transfer system. The PVDF membrane after electro-transfer was cut into several required strips, which were then placed in a blocking solution (5% skim milk powder diluted in TBS containing 0.1% Tween 20) and blocked at room temperature for 1.5 h. A primary antibody solution was prepared by diluting a primary antibody against the corresponding target protein in TBS containing 0.1% Tween 20 according to the dilution requirements of different antibodies, such as 1:1000 (CST), 1:3000 (Proteintech, Bethyl), and 1:200 (Santacruz). The blocked membrane was placed in the corresponding primary antibody solution and incubated at 4°C for 12-14 h. Then, the cells were washed three times with TBS containing 0.1% Tween 20, each time for 5 min. After washing, the membrane was placed in a secondary antibody solution (horseradish peroxidase-labeled goat anti-rabbit IgG, diluted at 1:2000 in TBS containing 0.1% Tween 20) and reacted at room temperature for 2 h. After washing the membrane three times as above, the membrane was developed with StarSignal plus reagent (GenStar®) and Omni-ECL reagent (Yazyme®), and photographed with Amersham Imager 800 system.

[5] = Pharmacokinetics and bioavailability test in rats (Example 57); format: in vivo; details: SD rats; for MRT last: read-out: MRT(0-t); for MRT inf: read-out: MRT(0-∞)
Description: as §1, with “Table 1.” for “Table 2.”, “of compound zlc-4-93” for “of compounds YJZ9069 and YJZ1102”

[6] = Sprague-Dawley, plasma, IV 2.5 mg/kg
[7] = Sprague-Dawley, plasma, PO 10 mg/kg
[8] = Sprague-Dawley, rat, plasma, iv, i.v. 2.5 mg/kg
[9] = Sprague-Dawley, rat, plasma, Oral 10 mg/kg

CN1C(=O)CCC(N2C(=O)c3cccc(OCC(=O)N4CCN(c5ccc(N(C(=O)NCc6ccccc6)[C@H]6CC[C@H](Nc7ncc8ccccc8n7)CC6)cc5)CC4)c3C2=O)C1=O (stereo partly drawn) [YJZ1078]
induction of degradation of CDK12 and CDK13 proteins (CDK12 and CDK13 proteins [1]): cannot effectively induce degradation | pIC50 [2]: < 5.30

O=C1CCC(N2C(=O)c3ccc(N4CCC(CN5CCN(c6ccc(N(C(=O)NCc7ccccc7)[C@H]7CC[C@H](Nc8ncc9ccccc9n8)CC7)cc6)CC5)CC4)cc3C2=O)C(=O)N1 (stereo partly drawn) [YJZ1097, 3-benzyl-1-(4-(4-((1-(2-(2,6-dioxopiperidin-3-yl)-1,3-dioxoisoindole-5-yl)piperidin-4-yl)methyl)piperazin-1-yl)phenyl)-1-((1r,4r)-4-(quinazolin-2-ylamino)cyclohexyl)urea]
degradation of CDK12 and CDK13 proteins (CDK12 and CDK13 proteins [1]): almost completely degrade | degradation of CDK12 and CDK13 protein levels in cells (CDK12 and CDK13 proteins [1]): effectively degrade | dose dependence of degradation of CDK12 and CDK13 proteins (CDK12 and CDK13 proteins [1]): dose-dependent manner | pIC50 [2]: 8.41 | F ([3]; PO 10 mg/kg): 23.89% | oral pharmacokinetic properties [3]: excellent | Cmax [3, 6]: 2490 ng/mL | Tmax [3, 6]: 0.08 h | clearance [3, 6]: 3.12 mL/min/kg | half-life [3, 6]: 829 min | Cmax [3, 7]: 593 ng/mL | Tmax [3, 7]: 6.7 h | half-life [3, 7]: 912 min

O=C1CCC(N2C(=O)c3ccc(N4CC(CN5CCN(c6ccc(N(C(=O)NCc7ccccc7)[C@H]7CC[C@H](Nc8ncc9ccccc9n8)CC7)cc6)CC5)C4)cc3C2=O)C(=O)N1 (stereo partly drawn) [YJZ1102]
degradation of CDK12 and CDK13 protein levels in cells (CDK12 and CDK13 proteins [1]): effectively degrade | pIC50 [2]: 7.79 | F ([3]; IP 10 mg/kg): 94.15% | F ([3]; PO 10 mg/kg): 17.28% | oral pharmacokinetic properties [3]: excellent | Cmax ([3]; in vivo, IP 10 mg/kg): 662 ng/mL | Tmax ([3]; in vivo, IP 10 mg/kg): 6.67 h | half-life ([3]; in vivo, IP 10 mg/kg): 1580 min | Cmax ([3]; in vivo, IV 2.5 mg/kg): 2200 ng/mL | Tmax ([3]; in vivo, IV 2.5 mg/kg): 0.08 h | clearance ([3]; in vivo, IV 2.5 mg/kg): 3.32 mL/min/kg | half-life ([3]; in vivo, IV 2.5 mg/kg): 640 min | Cmax ([3]; in vivo, PO 10 mg/kg): 148 ng/mL | Tmax ([3]; in vivo, PO 10 mg/kg): 6 h | half-life ([3]; in vivo, PO 10 mg/kg): 623 min

O=C1CCC(N2C(=O)c3cc(F)c(N4CCC(N5CCN(c6ccc(N(C(=O)NCc7ccccc7)[C@H]7CC[C@H](Nc8ncc9ccccc9n8)CC7)cn6)CC5)CC4)cc3C2=O)C(=O)N1 (stereo partly drawn) [YJZ1206]
degradation of CDK12 and CDK13 proteins (CDK12 and CDK13 proteins [1]): almost completely degrade | degradation of CDK12 and CDK13 protein levels in cells (CDK12 and CDK13 proteins [1]): effectively degrade | dose dependence of degradation of CDK12 and CDK13 proteins (CDK12 and CDK13 proteins [1]): dose-dependent manner | F ([3]; PO 10 mg/kg): 39.16% | oral pharmacokinetic properties [3]: excellent | Cmax [3, 6]: 3120 ng/mL | Tmax [3, 6]: 0.08 h | clearance [3, 6]: 4.29 mL/min/kg | half-life [3, 6]: 309 min | Cmax [3, 7]: 1130 ng/mL | Tmax [3, 7]: 6 h | half-life [3, 7]: 374 min

O=C1CCC(N2C(=O)c3cccc(NCCCCCCCCCC(=O)N4CCN(c5cccc(N(C(=O)NCc6ccccc6)[C@H]6CC[C@H](Nc7ncc8ccccc8n7)CC6)c5)CC4)c3C2=O)C(=O)N1 (stereo partly drawn) [YJZ9055]
induction of degradation of CDK12 and CDK13 proteins (CDK12 and CDK13 proteins [1]): cannot effectively induce degradation | pIC50 [2]: 5.66

N#Cc1ccc(N[C@H]2CC[C@H](N(C(=O)NCc3ccccc3)c3ccc(N4CCN(C[C@@H]5CCN(c6ccc7c(c6)C(=O)N(C6CCC(=O)NC6=O)C7=O)C5)CC4)cc3)CC2)nc1 (stereo partly drawn) [ZLC5-106]
degradation of CDK12 and CDK13 protein levels in cells (CDK12 and CDK13 proteins [4]): effectively degrade

N#Cc1ccc(N[C@H]2CC[C@H](N(C(=O)NCc3ccccc3)c3ccc(N4CCC(CN5CC6(C5)CN(c5ccc7c(c5)C(=O)N(C5CCC(=O)NC5=O)C7=O)C6)CC4)cc3)CC2)nc1 (stereo partly drawn) [ZLC6-37]
degradation of CDK12 and CDK13 protein levels in cells (CDK12 and CDK13 proteins [4]): effectively degrade

N#Cc1ccc(N[C@H]2CC[C@H](N(C(=O)NCc3ccccc3)c3ccc(N4CCC(CN5CCN(c6ccc7c(c6)C(=O)N(C6CCC(=O)NC6=O)C7=O)CC5)CC4)cc3)CC2)nc1 (stereo partly drawn) [ZLC6-42]
degradation of CDK12 and CDK13 protein levels in cells (CDK12 and CDK13 proteins [4]): effectively degrade

N#Cc1ccc(N[C@H]2CC[C@H](N(C(=O)NCc3ccccc3)c3ccc(N4CCC5(CC4)CN(c4ccc6c(c4)C(=O)N(C4CCC(=O)NC4=O)C6=O)C5)cc3)CC2)nc1 (stereo partly drawn) [ZLC6-103]
degradation of CDK12 and CDK13 protein levels in cells (CDK12 and CDK13 proteins [4]): effectively degrade

N#Cc1ccc(N[C@H]2CC[C@H](N(C(=O)NCc3ccccc3)c3ccc(N4CCN(CC5CN(c6cc7c(cc6F)C(=O)N(C6CCC(=O)NC6=O)C7=O)C5)CC4)cc3)CC2)nc1 (stereo partly drawn) [ZLC7-36]
degradation of CDK12 and CDK13 protein levels in cells (CDK12 and CDK13 proteins [4]): effectively degrade

N#Cc1ccc(N[C@H]2CC[C@H](N(C(=O)NCc3ccccc3)c3ccc(N4CCN(C5CCN(c6ccc7c(c6)C(=O)N(C6CCC(=O)NC6=O)C7=O)CC5)CC4)cc3)CC2)nc1 (stereo partly drawn) [zlc-4-93]
F ([5]; Oral 10 mg/kg, bioavailability calculated from AUC): 16.46% | oral pharmacokinetic properties ([5]; summary in words of Table 1): excellent | AUC(0-inf) [5, 8]: 4740 ng·h/mL | AUC(0-t) [5, 8]: 4720 ng·h/mL | Cmax [5, 8]: 2590 ng/mL | Tmax [5, 8]: 0.08 h | clearance [5, 8]: 9.85 mL/min/kg | half-life [5, 8]: 143 min | MRT last [5, 8]: 2.37 h | MRT inf [5, 8]: 2.44 h | AUC(0-inf) [5, 9]: 3130 ng·h/mL | AUC(0-t) [5, 9]: 3110 ng·h/mL | Cmax [5, 9]: 308 ng/mL | Tmax [5, 9]: 4 h | half-life [5, 9]: 182 min | MRT last [5, 9]: 6.06 h | MRT inf [5, 9]: 6.19 h
